Test results from a melting point compilation (Tetko et al.; mined from patent text by program, amines drawn as free bases though some values may be those of a salt).

SMILES | melting point [°C]
COC(=O)c1cc2cc(OC)c(OC)cc2nc1N | 227 to 229
Nc1nc(O)c2c(n1)NCC(CCc1cc(C(=O)O)n[nH]1)C2 (configuration not stated) | > 260
CCC(Oc1cc(OC)ccc1C(=O)c1ccc(OCc2nc(-c3ccccc3)oc2C)cc1)C(=O)O (configuration not stated) | 161 to 162
Cc1nc(-c2ccc(N(C)C)cc2)sc1C(=O)O | 226 to 231
COc1cc(C(=O)O)nc(-c2ccc(N(C)C)cc2)c1 | 142 to 148
Cc1ccc(C)n1-c1ccc(F)c([N+](=O)[O-])c1 | 99 to 101
Nc1c2c(nc3ccc(F)cc13)-c1ccccc1CC2 | 158 to 159
C#Cc1sc(C2=NOC(c3cc(Cl)cc(Cl)c3)(C(F)(F)F)C2)cc1C (configuration not stated) | 105 to 107
Nc1ncc(I)cc1[N+](=O)[O-] | 213 to 215
NC(=O)C(=O)CCCCl | 87
CC(=O)N(N=Cc1c(Cl)cccc1Cl)c1nncn1N(C)C(C)=O | 167 to 169
Cc1nn(CCO)c(-c2ccc(F)cc2)c1-c1ccc2c(c1)NC(=O)CO2 | 178 to 179
Cc1cc(-c2ccc(O)cc2)ccc1C=NO | 195 to 197
O=C(NCC1CCN(c2cc3nc(C(=O)O)c(=O)[nH]c3cc2[N+](=O)[O-])C1)Nc1ccccc1 (configuration not stated) | > 300
CC(C)c1cccc(-c2ccc(F)cc2)c1/C=C/COc1ccc(C(=O)C(=O)O)cc1 | 142 to 143
CN(CCNC(=C[N+](=O)[O-])SCc1ccccc1)Cc1ccc(Cl)nc1 | 119 to 123
CCCCCCCCSC(=O)CS(=O)(=O)Nc1c(C(C)C)cccc1C(C)C | 51 to 52
CC1(C)Cc2c(c(O)cc3c2C(c2cccc(-c4ccc(NC(=O)OCc5ccccc5)cc4)c2)=NCC3(C)C)O1 | 161 to 165
CSc1nc2ccc(C)cc2c(=O)s1 | 114
CC(=O)NC(=C(C)C(=O)O)c1ccccc1 | 190

SMILES | melting point [°C]
Cn1c(COc2ccc(CC3SC(=O)NC3=O)cc2)nc2cc(Cl)cnc21 (configuration not stated) | 203 to 205
CCOCn1nccc1C(O)c1ccc(O)c(Cl)c1Cl (configuration not stated) | 150
CNC(=O)Oc1ccccc1C(=O)NC(Oc1ccccc1)C(Cl)(Cl)Cl (configuration not stated) | 138 to 141
COC(=O)c1nc(OC(C)=O)cc2c1[nH]c1ccccc12 | 151 to 152
CCNc1nc(SC)ncc1CNc1cc(OC)cc(OC)c1Cl | 116 to 118
C#Cc1ccc(SC)cc1Cl | 46 to 50
CC(=O)N1CCN(c2c(F)c(C)c3c(=O)c(C(=O)O)cn(C4CC4)c3c2F)CC1 | 217 to 220
OCc1ccc(-c2cccnc2)o1 | 119 to 120
Cc1cc(OCC(F)(F)F)c(N)c(OCC(F)(F)F)n1 | 53.5 to 53.8
O=C(O)/C=C/C=C/C=C/C1=Cc2ccccc2OC1 | 206 to 208
CCCC1CCC(=O)C=C1c1ccc(OCC(=O)O)c(Cl)c1Cl (configuration not stated) | 177 to 178
O=C(CNc1ccc2[nH]ncc2c1)N1CCC(Cc2ccc(F)cc2)CC1 | 113 to 114
CNc1ccc(CCl)cc1[N+](=O)[O-] | 126 to 128
CC(C)(C)OC(=O)N[C@H]1CCCC[C@@H]1O | 103 to 105
Cc1cc(C)cc(NC(=O)Cc2ccc(OC3(C(=O)N[C@H](CC(C)C)C(=O)O)CCCC3)cc2)c1 | 119 to 120
CCC(CC)C(=O)Nc1ccc2ncnc(NC=C(C(=O)OC)C(=O)OC)c2c1 | 221 to 225
Cc1ccc(S(=O)(=O)N2CCC(c3cccc4c3CCCC(C(=O)O)=C4)CC2)cc1 | 255 to 257
CC1(C)CCC(C)(C)c2cc3c(cc21)CCc1c(-c2ccc(C(=O)O)cc2)c[nH]c1-3 | 268 to 270
O=C(O)c1ccccc1Oc1ccc2c(c1)CC[C@H](CNC[C@H](O)COc1ccccc1)O2 | 188
CC1(C)C(C=C(Cl)Cl)C1C(=O)O (configuration not stated) | 86

SMILES | melting point [°C]
CCNc1nc(Nc2ccccc2)ncc1C(=O)OCC | 145 to 147
O=C(NC(=O)c1ccccn1)NC1CN2CCC1CC2 (configuration not stated) | 202 to 203
CCCN1Cc2ccccc2C(=O)c2cc(CC(=O)O)ccc21 | 126
COc1ccc(F)c2c(O)c3cnccc3cc12 | > 210
CC1(C(=O)NNc2c(Cl)cc(C(F)(F)F)cc2Cl)CC1(Cl)Cl (configuration not stated) | 174 to 175
O=C1Nc2ccc(Cl)c(Cl)c2C(=O)N2CCC[C@@H]12 | 203 to 205
Nc1cc2c(cc1Br)-c1cc(Br)c(N)cc1S2(=O)=O | > 355
CCCC(Nc1ccc(OCc2ccccc2)cc1)C(=O)OCC (configuration not stated) | 68
Cc1cccc([N+](=O)[O-])c1C(=O)N[C@@H]1c2cc(OC(F)(F)F)ccc2OC(C)(C)[C@H]1O | 204 to 206
O=Cc1ccn(-c2cc3[nH]c(=O)c(=O)[nH]c3cc2[N+](=O)[O-])c1 | > 250
O=C1CSC(=S)N1c1ccc(Cl)c(Cl)c1 | 176 to 178
COC(=O)Nc1cccc(OC(=O)N(CCC#N)c2ccccc2)c1 | 98 to 99
O=C(CI)OCc1ccc([N+](=O)[O-])cc1 | 62.5 to 63.5
Cn1cccc1C(=O)C(C#N)C(=O)Nc1ccc(F)cc1 (configuration not stated) | 198 to 199
[N-]=[N+]=Cc1ccc([N+](=O)[O-])cc1 | 80 to 82
C=CCN(CC)C(=O)n1cnc(S(=O)CC)n1 (configuration not stated) | 59 to 61
COc1ccc(C2CNC(=O)C2)cc1OCCN1CCN(c2ccccc2)CC1 (configuration not stated) | 140 to 141
CC(C)Cc1cnc(O)c([N+](=O)[O-])c1 | 161 to 163
O=C(O)Cc1ccc(NC(=O)C(CCc2ccccc2)NS(=O)(=O)c2ccc(Br)cc2)cc1 (racemic) | 155 to 160
Clc1ccc2c(c1)C(c1ccccc1)=NCc1nnc(CCOCc3ccccc3)n1-2 | 115 to 117

Second part, the molecule after the results:

melting point [°C] | SMILES
186 to 187 | N#Cc1cnn(-c2c(Cl)cc(C(F)(F)F)c(Cl)c2Cl)c1N
200 to 201 | Nc1c(Cl)cnc(OCC(=O)O)c1Cl
65 | C=C(C)C(=O)OCc1ccc(C#Cc2ccc(OC(=O)C(=C)C)cc2)cc1
144 to 145 | COc1ccc(-n2nc(Br)cc2-c2ccc(SC)cc2)cc1
266 | CCn1cc(C(=O)O)c(=O)c2cc(Cl)c(N3CCOCC3)cc21
153 to 154 | CCCCCCCCCCCCS(=O)(=O)c1cc(C(=O)O)c([N+](=O)[O-])c(S(=O)(=O)CCCCCCCCCCCC)c1
199 to 200 | N#Cc1cc(C(=O)NNC(=O)c2occc2-c2ccc(Oc3ccccc3)cc2)ccc1O
251 to 253 | O=C(O)c1cc(=O)c2c(o1)-c1ccccc1SC2
216 to 217 | O=C(NCc1c[nH]c(=S)n1[C@H]1CCc2c(F)cc(F)cc2C1)c1ccccn1
264 to 265 | CC1(C)CCC(C)(C)c2cc3c(cc21)CCc1cc(-c2ccc(C(=O)O)cc2)oc1-3
91 to 94 | CC(O)c1ccc(NS(C)(=O)=O)c(Sc2ccc(Cl)cc2Cl)c1 (configuration not stated)
121 to 122 | O=C1N(C(c2ccccc2)c2ccccc2)c2c(F)cccc2C1(O)c1cc2c(cc1O)OCC2 (configuration not stated)
122 to 124 | CSc1nccc(C)c1NC(=O)CCCCCSc1nc2ccccc2o1
130 | Cc1nc(C(F)F)ccc1C(=O)C1=C(NS(=O)(=O)c2ccccc2)C(C)(C)C(=O)C(C)(C)C1=O
212 to 213 | CCCCCCC(=O)Nc1c(Sc2cc(C)cc(C)c2)c(C)c[nH]c1=O
164 to 166 | O=C(Sc1ccccc1)c1cc2cc(CCl)ccc2oc1=O
87 to 89 | CSc1cc(SC)c(SC)cc1NC(C)=O
104 to 105 | Fc1ccccc1C1=NCc2ccccc2-c2ccc(Br)cc21
> 300 | O=C(O)CN1C(=O)C(=Cc2ccc(O)cc2)SC1=S
140 to 143 | COc1ccc(S(=O)(=O)c2sc(S(N)(=O)=O)cc2C)cc1
227 to 230 | Cc1[nH]c2ccc(C(=O)c3ccccc3)cc2c1C=O

melting point [°C] | SMILES
164 to 166 | C#CC1N(C(=O)Oc2ccccc2)c2cc(OC(=O)C(C)(C)C)ccc2C23OC12CCCC3=O (configuration not stated)
171 to 173 | COc1ccc(CN2CC(COC(c3ccccc3)(c3ccccc3)c3ccccc3)CC2=O)cc1 (configuration not stated)
112 | CCOC(=O)C1=C(C)NN=C(CC)C1c1cccc(Cl)c1 (configuration not stated)
55 | CCC[C@H]1CC[C@H]([C@H]2CC[C@H](c3ccc(C#N)cc3)CC2)CC1
> 250 | COc1cc(NC(=O)C(C#N)=CNc2ccc(OC)c(Br)c2)c(Cl)cc1Cl
160 | O=c1nc(-c2ccccc2)c2cc([N+](=O)[O-])ccc2n1CC1CC2CCC1C2 (configuration not stated)
83 to 85 | CCCCCCCCCCCCCCCCN(C(=O)c1ccc(Cl)c([N+](=O)[O-])c1)c1ccccc1[N+](=O)[O-]
155 to 157 | C=CC[C@H](CC(=O)OC(C)(C)C)C(=O)N[C@H](C(=O)N[C@H](COC)c1ccccc1)C(C)C
67 to 68 | Nc1ccc(OCc2ccccc2)cc1C=C(Br)Br
96 to 97 | CCCCCCCCCCCCOc1ccc2cc(C(C)C(=O)O)ccc2c1 (configuration not stated)
147 to 149 | COc1nc2ccccc2nc1NC(=O)N1CCN(c2ccccc2C(C)C)CC1
145 | COc1nc(Cc2nn(C)c(C)c2NS(=O)(=O)C(F)(F)F)nc(OC)n1
77 to 78 | C=Cc1ccc(P(c2ccccc2)c2ccccc2)cc1
218 to 219 | Cc1cc(F)ccc1-c1nc(NC2CCCCC2)nc2c1ccc(=O)n2-c1c(F)cccc1F
76 to 79 | O=C(c1ccccc1Cl)c1ccccc1[N+](=O)[O-]
208 | CC(=O)Nc1ccc(C(=O)N2CC3CC(CN(Cc4ccccc4)C3)C2)cc1
194 to 198 | N#Cc1ccccc1N1CCCN(Cc2cc3cc(F)ccc3[nH]2)CC1
141 to 145 | O=C1NC2CCC(=O)N2[C@H]1Cc1ccccc1 (some centres not stated)
33.4 to 34.4 | C=CC(=O)OCC(CCCCCCCCCCCOc1ccc(-c2cccc(F)c2F)cc1)COC(=O)C=C
201 to 203 | Cc1cc(-c2nc3cc(F)cc(F)c3s2)ccc1N
58 to 59 | COc1ccc(CSc2ccc3c(c2)C=CC(C)(C)O3)cc1
